From US20180214691A1, “NEUROMODULATION DEVICE” (GALVANI BIOELECTRONICS LIMITED, priority 2015, published 2018)
“Also recorded” adds a separate entry of the source.

How the values were obtained:
[1] = system: rats; test: Cystometrograms in the rat PGE2 model of bladder dysfunction; assay type: in vivo
Excerpt: In the following examples, two accepted animal models of bladder dysfunction were used. The first was a PGE2 (prostoglandin E2) model, in which installation of PGE2 into rats induces a hyperactive bladder response.
Animal models of bladder dysfunction need to take into account the fact that rodent (e.g. rat) urination behaviour differs from that of humans. However, the following parameters (as defined in Andersson et al. Neurourology and Urodynamics, 30: 636-646 (2011), which is incorporated herein by reference) are accepted measures against which therapeutic interventions can be assessed (adapted from Andersson et al.): • (a) Baseline pressure: minimum pressure between two micturitions. This parameter is important as an internal control for the procedure. • (b) Intermicturition pressure: mean pressure between two micturitions. The IMP is related to the occurrence of non-voiding contractions (NVCs). The more frequent and with higher amplitude the NVCs, the higher the IMP will be. • (c) Threshold pressure: intravesical pressure immediately before micturition. • (d) Maximum pressure: maximum bladder pressure during a micturition cycle. Also known as peak pressure, maximum voiding pressure, or maximum intravesical pressure. It should be noted that this pressure is not identical with the micturition pressure. The true micturition pressure is the pressure at which fluid starts to flow. • (e) Spontaneous activity (SA) or mean intermicturition oscillatory pressure: intermicturition pressure minus baseline pressure. This parameter is an approximate index of spontaneous bladder contractions between micturitions. SA will increase if there are frequent NVCs between micturitions. • (f) Non-voiding contractions (NVCs): defined as increases in intravesical pressure during cystometry, not associated with release of fluid. […] Since threshold pressure is the pressure at onset of micturition, subtraction of baseline pressure from threshold pressure gives the pressure variation between micturitions. • (l) Voiding efficiency: the voided volume expressed as a percentage of bladder capacity (i.e. voided volume/bladder capacity*100) • (m) External urethral sphincter electromyography: electrodes are placed into the external urethral sphincter and electromyography is recorded during bladder filling and voiding. A number of the parameters above were measured for both PGE2 and SHR rats.
A PE-90 polyethylene catheter was inserted into the bladder lumen through a small incision in the apex of the bladder dome. The bladder catheter was connected an infusion pump and a pressure transducer to measure bladder pressure. Additionally, two PFA-coated platinum-iridium wires (0.0055 inch diameter) were bilaterally inserted percutaneously into the external urethral sphincter (EUS) to record EUS EMG. Alternatively, a bipolar paddle electrode was placed intra-abdominally between the external urethral sphincter (EUS) and pubic symphysis (platinum-iridium contacts facing the urethra) to record EUS EMG.
At the start of an experiment, the bladder was continuously filled with physiological saline at room temperature using an infusion pump with an open urethra for 45 minutes to allow recovery post-surgery. The bladder was subsequently emptied, and CMG's were recorded. A single CMG event was characterized by a quiet period, a filling period, and a voiding period at the end of the voiding event, the infusion pump was turned off. The bladder was then emptied and subsequent CMG's were conducted.
PGE2: Control CMG's were conducted under saline infusion. After 2-3 subsequent control CMG events, the bladder was then infused continuously with PGE2 solution for 1 hour to allow for the bladder to reach drug related steady state. Multiple CMG's were then taken.
CMG parameters recorded were previously described by Andersson et al. as outlined above in example 1: model validation. […]

[2] = system: cats; test: Cat PGE2 model of bladder dysfunction; assay type: in vivo; conditions: PGE2 cats versus controls (each cat before PGE2 installation is its own control); N=3
Excerpt: Pelvic nerve stimulation is also effective in other models of OAB.

CCCCC[C@H](O)/C=C/[C@H]1[C@H](O)CC(=O)[C@@H]1C/C=C\CCCC(=O)O [PGE2, prostoglandin E2]
NVC duration ([1]; PGE2 rats versus controls): decreased; also recorded: reduction
bladder capacity ([1]; PGE2 rats versus controls): reduction
maximum bladder pressure ([1]; PGE2 rats versus controls): reduction
threshold bladder pressure ([1]; PGE2 rats versus controls): reduction
Δbladder pressure (threshold minus baseline bladder pressure) ([1]; PGE2 rats versus controls): reduction
voiding efficiency ([1]; PGE2 rats versus controls (each rat before PGE2 installation is its own control), bladder infused with PGE2 solution for 1 hour): decreased voiding efficiency; also recorded: statistically non-significant reduction
external urethral sphincter (EUS) EMG activity ([1]; PGE2 rats versus controls, filling and voiding phases of a CMG event): abnormal; also recorded: increase
non-voiding contraction (NVC) magnitude (bladder pressure area under the curve) ([1]; PGE2 rats versus controls, filling phase): decreased magnitude; also recorded: reduction
bladder capacity [2]: dose dependent reduction
